pKi: −log10 of the molar value. Read-outs that look alike come from different tables or passages of the source.
Target: T1, hMCHR (MCH receptor) (Homo sapiens, UniProt Q99705)
T1 construct: (or internally produced); host or cells: CHO (Chinese hamster ovary) cells, membrane preparation
Experiment: MCH Assay PCOP Protocol ([125I]-MCH SPA binding to hMCHR-CHO membranes);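 as to Activity (Ki range): A 0.4–50 nM B 51–500 nM C 501–2500 nM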
In short: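 SPA binding with 10 μg hMCHR-CHO membranes and WGA-SPA beads in 25 mM HEPES pH 7.4, 10 mM NaCl, 10 mM MgCl2, 5 mM MnCl2, 0.1% BSA.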

[1] = [125I]-MCH 0.5 nM, hMCHR-CHO membranes, read-out: Activity (ranges of Ki values)
[2] = [125I]-MCH binding to hMCHR-CHO membranes, class symbols for ranges of Ki, read-out: Activity (Ki range)
[3] = [125I]-MCH SPA binding, hMCHR-CHO membranes, Ki class ranges, read-out: Activity (range of Ki)

T1 sequence (Q99705 whole entry): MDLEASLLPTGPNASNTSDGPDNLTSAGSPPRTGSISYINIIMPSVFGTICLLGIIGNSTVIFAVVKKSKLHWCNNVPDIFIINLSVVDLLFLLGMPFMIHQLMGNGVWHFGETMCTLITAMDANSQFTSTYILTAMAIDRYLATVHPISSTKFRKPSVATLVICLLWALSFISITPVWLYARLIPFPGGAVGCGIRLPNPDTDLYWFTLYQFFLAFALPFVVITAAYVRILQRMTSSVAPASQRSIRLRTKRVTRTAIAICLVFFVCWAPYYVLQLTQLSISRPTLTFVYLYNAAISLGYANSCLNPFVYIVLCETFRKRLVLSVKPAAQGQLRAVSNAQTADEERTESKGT

| pKi [1] | pKi [2] | Structure (SMILES) | other results |
| --- | --- | --- | --- |
| 7.30 to 9.40 | – | CN(C)CCCNCCC(CNC(=O)Nc1cc(Cl)cc(Cl)c1)c1ccc(-c2cccc(OC(F)(F)F)c2)cc1 (stereo not drawn) [Example 88] | – |
| 6.30 to 7.29 | – | Cc1noc(C)c1-c1ccc(C(CCNC2CCCC2)CNC(=O)Nc2cc(Cl)cc(Cl)c2)cc1 (stereo not drawn) [Example 97] | – |
| 6.30 to 7.29 | – | Cc1ccc(C(CCNC2CCCC2)CN2CCN(c3cc(Cl)cc(Cl)c3)C2=O)cc1 (stereo not drawn) [Example 160] | – |
| 6.30 to 7.29 | – | COCC(=O)NC1CCN(CCC(CNC(=O)Nc2cc(Cl)cc(Cl)c2)c2ccc(Cl)cc2)CC1 (stereo not drawn) [Example 192] | – |
| 7.30 to 9.40 | – | O=C(NCC(CCNC1CCCC1)c1ccc(-c2cc[n+]([O-])cc2)cc1)Nc1cc(Cl)cc(Cl)c1 (stereo not drawn) [Example 37] | – |
| 6.30 to 7.29 | – | CC(CCNC1CCCC1)(CNC(=O)Nc1ccc(Cl)c([N+](=O)[O-])c1)c1ccc(Cl)c(Cl)c1 (stereo not drawn) [Example 105] | – |
| 6.30 to 7.29 | – | O=C(NCC(CCNC1CCCC1)c1cccc(-c2cccc(F)c2)c1)Nc1cc(Cl)cc(Cl)c1 (stereo not drawn) [Example 156] | – |
| 5.60 to 6.30 | – | C[N+](C)([O-])CCC(CNC(=O)Nc1cc(Cl)cc(Cl)c1)c1ccc(-c2cc[n+]([O-])cc2)cc1 (stereo not drawn) [Example 41] | – |
| – | 6.30 to 7.29 | COc1ccc(-c2ccc(C(CCNC3CCCC3)CNC(=O)Nc3cc(Cl)cc(Cl)c3)cc2)cc1 (stereo not drawn) [Example 241] | – |
| – | 5.60 to 6.30 | O=C(NCC(CCNCCN1CCCC1)c1ccc(Cl)c(Cl)c1)c1cc(C(F)(F)F)cc(C(F)(F)F)c1 (stereo not drawn) [Example 411] | – |
| – | 5.60 to 6.30 | O=C(NCC(CCNCc1ccc2c(c1)OCO2)c1ccc(Cl)c(Cl)c1)Nc1cc(C(F)(F)F)cc(C(F)(F)F)c1 (stereo not drawn) [Example 319] | – |
| – | 5.60 to 6.30 | O=C(NCc1cc(C(F)(F)F)cc(C(F)(F)F)c1)C(CCN1CCC(O)CC1)c1ccc(Cl)c(Cl)c1 (stereo not drawn) [Example 389] | – |
| 5.60 to 6.30 | – | COCC(=O)NC1CCN(CCC(CNC(=O)Nc2cc(Cl)cc(Cl)c2)c2ccc(C)cc2)CC1 (stereo not drawn) [Example 213] | – |
| 5.60 to 6.30 | – | CS(=O)(=O)NC1CCN(CCC(CNC(=O)Nc2cc(Cl)cc(Cl)c2)c2ccc(Cl)c(Cl)c2)C1 (stereo not drawn) [Example 211] | – |
| 6.30 to 7.29 | – | Cc1ccc(C(CCNC2CCCC2)CNC(=O)Nc2ccc(Cl)c(Cl)c2)cc1 (stereo not drawn) [Example 127] | – |
| – | 5.60 to 6.30 | Cc1ccc(C(CCNc2c(C)noc2C)CNC(=O)Nc2cc(Cl)cc(Cl)c2)cc1 (stereo not drawn) [Example 275] | – |
| 5.60 to 6.30 | – | O=C(NCC(CCNC1CCCC1)c1ccc(Cl)cc1)Nc1cccc(Cl)c1 (stereo not drawn) [Example 139] | – |
| – | 6.30 to 7.29 | COc1ccc(-c2ccc(C(CCNCCCN(C)C)CNC(=O)Nc3cc(Cl)cc(Cl)c3)cc2)cc1 (stereo not drawn) [Example 240] | – |

| pKi [1] | pKi [2] | Structure (SMILES) | other results |
| --- | --- | --- | --- |
| – | – | O=C(NCC(CCN1CCC(O)C1)c1ccc(Cl)c(Cl)c1)Nc1cc(C(F)(F)F)cc(C(F)(F)F)c1 (stereo not drawn) [Example 427] | pKi [3]: 5.60 to 6.30 |
| – | 6.30 to 7.29 | CN(C)CCCNCCC(CNC(=O)Nc1cc(Cl)cc(Cl)c1)c1ccc(-c2ccc(Cl)c(Cl)c2)cc1 (stereo not drawn) [Example 247] | – |
| 6.30 to 7.29 | – | O=C(NCC(CCNC1CCCC1)c1ccc(Cl)cc1)Nc1cccc(Br)c1 (stereo not drawn) [Example 136] | – |
| – | – | CCN1CCCC1CNCCC(CNC(=O)Nc1cc(C(F)(F)F)cc(C(F)(F)F)c1)c1ccc(Cl)c(Cl)c1 (stereo not drawn) [Example 423] | pKi [3]: 6.30 to 7.29 |
| 5.60 to 6.30 | – | COc1cscc1C(=O)NC1CCN(CCC(CNC(=O)Nc2cc(Cl)cc(Cl)c2)c2ccc(C)cc2)CC1 (stereo not drawn) [Example 203] | – |
| 7.30 to 9.40 | – | N#Cc1cccc(-c2ccc(C(CCNC3CC3)CNC(=O)Nc3ccccc3)cc2)c1 (stereo not drawn) [Example 58] | – |
| 6.30 to 7.29 | – | N#Cc1cccc(-c2ccc(C(CCNC3CCCC3)CNC(=O)c3cccc(Cl)c3)cc2)c1 (stereo not drawn) [Example 85] | – |
| 5.60 to 6.30 | – | CC(CCNC1CCCC1)(CNC(=O)Nc1ccc(F)c(F)c1)c1ccc(Cl)c(Cl)c1 (stereo not drawn) [Example 114] | – |
| – | 6.30 to 7.29 | Cc1ccc(C(CCNC2CCC2)CNC(=O)Nc2cc(Cl)cc(Cl)c2)cc1 (stereo not drawn) [Example 272] | – |
| 7.30 to 9.40 | – | CN(C)CCC(CNC(=O)Nc1cc(Cl)cc(Cl)c1)c1ccc(-c2cccnc2)cc1 (stereo not drawn) [Example 36] | – |
| – | 5.60 to 6.30 | O=C(NCC(CCN1CCNCC1)c1ccc(Cl)c(Cl)c1)Nc1cccc(C(F)(F)F)c1 (stereo not drawn) [Example 309] | – |
| 5.60 to 6.30 | – | Cc1ccc(C(CCNC2CCCC2)CNC(=O)Nc2cccc(Cl)c2)cc1 (stereo not drawn) [Example 142] | – |
| 7.30 to 9.40 | – | N#Cc1cccc(-c2ccc(C(CCNC3CC3)CNC(=O)Nc3ccc(F)c(Cl)c3)cc2)c1 (stereo not drawn) [Example 56] | – |
| – | 6.30 to 7.29 | Cc1ccc(C(CCN2CCC(N3CCCCC3)CC2)CNC(=O)Nc2cc(Cl)cc(Cl)c2)cc1 (stereo not drawn) [Example 351] | – |
| 6.30 to 7.29 | – | CC(CCNC1CCCC1)(CNC(=O)Nc1cc(Cl)cc(Cl)c1)c1ccc(Cl)c(Cl)c1 (stereo not drawn) [Example 107] | – |
| 6.30 to 7.29 | – | Cc1ccc(C(CCN2CCC(NC(=O)C3CCC3)CC2)CNC(=O)Nc2cc(Cl)cc(Cl)c2)cc1 (stereo not drawn) [Example 187] | – |
| – | 6.30 to 7.29 | CCOC(=O)N1CCC(NCCC(CNC(=O)Nc2ccc(F)c(F)c2)c2ccc(Cl)c(Cl)c2)CC1 (stereo not drawn) [Example 262] | – |
| – | 6.30 to 7.29 | CCCN(CC)CCC(CNC(=O)Nc1ccc(Cl)c(Cl)c1)c1ccc(Cl)c(Cl)c1 (stereo not drawn) [Example 289] | – |
